What was measured:
[1] = target: GABA-A receptor; benzodiazepine site (Homo sapiens) (UniProt P14867+P18507+P48169+Q99928+P34903+Q8N1C3+P47869+P31644+Q16445); experiment: Inhibition of central benzodiazepine site on GABAA receptor at 100 nM; format: protein-complex assay
[2] = target: Glutamate [NMDA] receptor (Homo sapiens) (UniProt Q05586+Q12879+Q13224+O15399+O60391+Q14957+Q8TCU5); experiment: Inhibition of agonist site of NMDA receptor at 10 uM; format: functional
[3] = target: T1, monoamine oxidase B (MAO-B) (Rattus norvegicus, UniProt P19643); experiment: Inhibition of monoamine oxidase B in rat brain at 100 nM; format: tissue-based
T1 sequence (P19643 whole entry): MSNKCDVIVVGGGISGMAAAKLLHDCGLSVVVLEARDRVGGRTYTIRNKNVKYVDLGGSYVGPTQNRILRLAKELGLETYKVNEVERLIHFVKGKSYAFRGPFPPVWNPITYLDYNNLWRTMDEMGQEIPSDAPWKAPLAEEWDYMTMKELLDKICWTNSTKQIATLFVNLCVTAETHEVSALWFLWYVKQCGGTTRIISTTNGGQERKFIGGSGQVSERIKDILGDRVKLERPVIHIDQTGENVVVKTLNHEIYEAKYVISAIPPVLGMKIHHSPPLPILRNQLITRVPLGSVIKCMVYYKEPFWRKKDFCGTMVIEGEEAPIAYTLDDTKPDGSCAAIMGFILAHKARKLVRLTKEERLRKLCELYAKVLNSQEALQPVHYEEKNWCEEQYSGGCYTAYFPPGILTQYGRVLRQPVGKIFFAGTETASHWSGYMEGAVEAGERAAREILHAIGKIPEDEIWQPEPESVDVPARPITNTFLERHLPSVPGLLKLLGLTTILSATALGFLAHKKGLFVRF

[4] = Inhibitory activity at TBOB site in GABA gated chloride channel at 1 nM
[5] = target: Protein kinase C, PKC; classical/novel (Homo sapiens) (UniProt O94806+P17252+P05129+Q05655+P05771+Q02156+P24723+Q15139+Q04759); experiment: Inhibition of PDBu activated protein kinase C at 100 nM; format: protein assay
[6] = target: T2, Cysteinyl leukotriene receptor 1 (Homo sapiens) (UniProt Q9Y271); experiment: Inhibition of leukotriene D4 at 1 nM
T2 sequence (whole entry): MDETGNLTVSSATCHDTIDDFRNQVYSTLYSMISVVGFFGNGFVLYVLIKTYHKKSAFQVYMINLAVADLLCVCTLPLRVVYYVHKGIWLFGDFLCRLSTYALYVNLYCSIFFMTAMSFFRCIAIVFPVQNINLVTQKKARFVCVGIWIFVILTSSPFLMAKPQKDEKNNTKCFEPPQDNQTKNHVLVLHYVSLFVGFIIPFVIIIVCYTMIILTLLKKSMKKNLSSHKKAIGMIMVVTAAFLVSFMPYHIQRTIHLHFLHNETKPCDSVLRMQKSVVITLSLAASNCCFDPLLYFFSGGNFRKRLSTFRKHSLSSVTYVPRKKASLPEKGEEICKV

[7] = target: T3, Atrial natriuretic peptide receptor 1 (Homo sapiens) (UniProt P16066); experiment: Inhibition of ANP A at 1 nM
T3 sequence (whole entry): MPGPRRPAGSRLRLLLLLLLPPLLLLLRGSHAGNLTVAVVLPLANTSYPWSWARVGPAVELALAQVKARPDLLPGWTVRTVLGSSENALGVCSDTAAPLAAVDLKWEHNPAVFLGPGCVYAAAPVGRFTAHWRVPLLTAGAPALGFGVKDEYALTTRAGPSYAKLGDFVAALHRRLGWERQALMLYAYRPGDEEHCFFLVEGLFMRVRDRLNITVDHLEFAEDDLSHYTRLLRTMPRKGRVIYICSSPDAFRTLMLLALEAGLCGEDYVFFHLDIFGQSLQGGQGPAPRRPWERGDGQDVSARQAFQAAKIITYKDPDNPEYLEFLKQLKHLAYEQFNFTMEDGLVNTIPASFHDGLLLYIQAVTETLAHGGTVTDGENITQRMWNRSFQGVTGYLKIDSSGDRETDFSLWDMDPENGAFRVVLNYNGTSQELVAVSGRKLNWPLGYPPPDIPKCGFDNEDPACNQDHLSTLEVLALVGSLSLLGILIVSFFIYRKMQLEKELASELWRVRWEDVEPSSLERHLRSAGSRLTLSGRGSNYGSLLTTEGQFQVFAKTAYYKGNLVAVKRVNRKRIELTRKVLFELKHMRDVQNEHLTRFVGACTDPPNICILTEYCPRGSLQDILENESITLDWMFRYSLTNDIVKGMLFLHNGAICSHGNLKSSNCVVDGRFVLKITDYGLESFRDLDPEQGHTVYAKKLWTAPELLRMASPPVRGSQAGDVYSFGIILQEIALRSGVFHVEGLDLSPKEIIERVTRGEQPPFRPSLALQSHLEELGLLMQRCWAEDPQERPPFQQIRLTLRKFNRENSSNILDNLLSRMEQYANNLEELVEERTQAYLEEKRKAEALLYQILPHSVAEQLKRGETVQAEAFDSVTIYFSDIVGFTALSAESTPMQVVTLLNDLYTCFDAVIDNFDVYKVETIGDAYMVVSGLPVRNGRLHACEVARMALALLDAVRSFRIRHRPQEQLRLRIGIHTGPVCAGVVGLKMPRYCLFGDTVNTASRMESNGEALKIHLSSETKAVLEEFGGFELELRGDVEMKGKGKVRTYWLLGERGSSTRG

[8] = target: T3, Atrial natriuretic peptide receptor 1 (Homo sapiens); experiment: Inhibition of ANP A at 10 uM
[9] = target: Platelet-activating factor receptor (Homo sapiens) (UniProt P25105); experiment: Inhibition of PAF at 10 uM
[10] = target: 5-hydroxytryptamine receptor 5A (Homo sapiens, UniProt P47898); experiment: Inhibitory activity against 5HT5A receptor
[11] = target: T4, Alpha-2C adrenergic receptor (Homo sapiens, UniProt P18825); experiment: Activity at adrenergic Alpha-2C receptor expressed in rat-mouse hybrid […] cell by adenylyl cyclase assay; format: functional, cell-based
T4 sequence (P18825 whole entry): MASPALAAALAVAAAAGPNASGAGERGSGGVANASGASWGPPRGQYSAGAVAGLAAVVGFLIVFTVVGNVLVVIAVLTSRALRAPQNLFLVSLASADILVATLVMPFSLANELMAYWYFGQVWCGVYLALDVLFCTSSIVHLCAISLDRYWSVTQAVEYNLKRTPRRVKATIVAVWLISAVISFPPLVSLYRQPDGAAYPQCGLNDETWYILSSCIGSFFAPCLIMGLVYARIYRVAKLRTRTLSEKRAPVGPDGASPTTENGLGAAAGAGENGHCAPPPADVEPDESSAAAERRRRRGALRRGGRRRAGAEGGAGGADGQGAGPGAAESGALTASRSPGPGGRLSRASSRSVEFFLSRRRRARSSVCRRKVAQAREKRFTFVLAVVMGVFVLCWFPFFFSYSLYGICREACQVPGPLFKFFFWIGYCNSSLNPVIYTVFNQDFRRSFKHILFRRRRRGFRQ

Sequence of 5-hydroxytryptamine receptor 5A (P47898 whole entry): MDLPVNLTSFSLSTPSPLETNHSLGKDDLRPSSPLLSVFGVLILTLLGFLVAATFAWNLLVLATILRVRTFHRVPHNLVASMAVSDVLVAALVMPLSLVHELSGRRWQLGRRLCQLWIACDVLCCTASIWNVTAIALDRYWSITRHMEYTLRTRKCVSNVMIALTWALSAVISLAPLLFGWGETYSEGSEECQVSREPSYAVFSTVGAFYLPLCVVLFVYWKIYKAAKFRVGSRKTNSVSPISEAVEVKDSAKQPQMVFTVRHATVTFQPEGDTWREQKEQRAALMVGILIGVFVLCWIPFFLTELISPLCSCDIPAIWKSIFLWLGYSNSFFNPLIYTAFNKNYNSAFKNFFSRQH
Sequence of Platelet-activating factor receptor (Homo sapiens) (P25105 whole entry): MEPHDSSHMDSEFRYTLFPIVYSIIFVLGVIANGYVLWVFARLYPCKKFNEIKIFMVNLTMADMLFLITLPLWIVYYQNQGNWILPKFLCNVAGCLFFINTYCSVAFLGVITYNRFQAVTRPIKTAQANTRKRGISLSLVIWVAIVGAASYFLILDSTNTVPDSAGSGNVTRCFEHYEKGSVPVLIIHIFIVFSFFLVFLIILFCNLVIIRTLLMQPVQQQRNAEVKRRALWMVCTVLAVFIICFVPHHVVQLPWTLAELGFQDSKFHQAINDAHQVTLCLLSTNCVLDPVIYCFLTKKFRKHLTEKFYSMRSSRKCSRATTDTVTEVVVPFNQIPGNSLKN

Which inhibition [1] does the source give for `C[C@H](N)Cn1ncc2ccc(O)cc21` here?
Its inhibition is 18.8%.

What about the inhibition [2] of the same compound?
Its inhibition is 9.07%.

And the inhibition at 0.1 µM [3]?
Its inhibition at 0.1 µM is -20%.

And the inhibition [4]?
Its inhibition is -3.75%.

What about the inhibition [5] of the same compound?
The inhibition was 11.3%.

What about the inhibition [6] of the same compound?
The inhibition was 2.65%.

What about the inhibition [7] of the same compound?
Its inhibition is -5.65%.

What about the inhibition [8] of the same compound?
The inhibition was -5.3%.

And the inhibition [9]?
The inhibition was 34.4%.

And the Ki [10]?
Its Ki is over 10 µM.

And the EC50 [11]?
The EC50 was 10 µM.

From ChEMBL document CHEMBL1148572, “1-((S)-2-aminopropyl)-1H-indazol-6-ol: a potent peripherally acting 5-HT2 receptor agonist with ocular hypotensive activity” (J Med Chem, 2006)
